# Laboratory results taken from patent US20250249026A1 (priority 2019, published 2025).
# Values joined by “and” are separate entries in the source; they are usually repeats but may differ in a detail not shown here. Equal values may be shown once. “Also recorded” adds a separate entry of the source.
# How the values were obtained:
# iNOS = experiment: Expression of iNOS in macrophages induced by LPS (Embodiment 8); assay type: cell-based, Mouse; settings: 10 μmol/L, LPS 0.1 μg/mL, 24 h, ELISA, FIG. 6
# Description: 1. Cell line: Macrophage RAW264.7.
# 2. Reagents: LPS (Sigma); iNOS detection kit (Stressgen); MTT (Biotopped).
# The level of iNOS protein in macrophages was determined by ELISA using an anti-human iNOS polyclonal antibody (Stressgen). The number of macrophages was determined by using an automatic flow cytometer.
# [1] = Removing peroxynitrite, SIN-1 as donor (Embodiment 9); assay type: biochemical; settings: SIN-1 1 μmol/L, 1, 10, 100 μmol/L, 302 nm, FIG. 7
# Description: 3-morpholino-sydnonimine (SIN-1) as a peroxynitrite donor was added to 15 test tubes at a concentration of 1 μmol/L. 5-methyltetrahydrofolate calcium was added to test tubes containing the SIN-1 solution to the final concentrations of 1 μmol/L, 10 μmol/L, and 100 μmol/L respectively; dehydroascorbic acid was added to test tubes containing the SIN-1 solution to the final concentrations of 1 μmol/L, 10 μmol/L, and 100 μmol/L respectively; glutathione was added to test tubes containing the SIN-1 solution to the final concentrations of 1 μmol/L, 10 μmol/L, and 100 μmol/L respectively; NMN was added to test tubes containing the SIN-1 solution to the final concentrations of 1 μmol/L, 10 μmol/L, and 100 μmol/L respectively; and tetrahydrobiopterin was added to test tubes containing the SIN-1 solution to the final concentrations of 1 μmol/L, 10 μmol/L, and 100 μmol/L respectively. The concentration of peroxynitrite was determined by spectrophotometry at a detection wavelength of 302 nm.
# influenza = assay type: in vivo, human
# Macrophage RAW264.7 [2] = experiment: NO secretion of macrophage RAW264.7 (Embodiment 12); assay type: cell-based, Mouse; settings: for Lysate NO secretion amount / Supernatant NO secretion amount: Folate 15.625 μM, LPS group 1 μg/mL, mean, n = 6
# Description: • 1. Cell line: Macrophage RAW264.7. • 2. […] II. Experimental scheme
# An absorbance value at 520 nm was expressed as mean±standard deviation. NO secretion rate=(OD sample well-OD blank well)/(OD normal well-OD blank well)×100%, and the NO secretion amount was calculated according to a standard curve.
# Macrophage RAW264.7 [3] = settings: 15.625, 62.5, 250 μmol/L; FIGS. 10-12
# [4] = tested on: Mycoplasma pneumoniae (ATCCFH15531); experiment: In vivo anti-mycoplasma pneumonia experiment (Embodiment 21); settings: azithromycin 40 mg/kg; composition C 40 and 80 mg/kg; 10 days
# [5] = randomized controlled trial / meta analyses from the literature; cited from earlier work
# Pseudomonas aeruginosa = experiment: Gram-negative bacteria in vivo (Embodiment 18); design: species or system BAL B/C male mice; settings: penicillin 450 mg/kg by gavage 30 min and 24 h after infection
# Description: […] BAL B/C male mice weighing 18-22 g were divided into 6 groups with 8 mice in each group. […] After a bacterial solution of Pseudomonas aeruginosa was cultured by streaking on an LB solid medium, a typical colony was picked and inoculated into an ordinary LB liquid medium. After overnight shaking culture at 37° C. for about 12 h, the culture was centrifuged at 4000 r/min for 3 min, the supernatant was discarded, and the bacteria were resuspended in normal saline for later use. The BAL B/C male mice in each experimental group and three control groups were intraperitoneally injected with a fatal dose of Pseudomonas aeruginosa solution at a dose of 500 μL/mouse. 30 min after the BAL B/C male mice in the experimental groups were infected with the bacteria, the medium-dose composition group and the high-dose composition group were administered with drugs by gavage, the penicillin group and the meropenem group were also administered with drugs by gavage, and the normal group was administered with purified water by gavage. 24 h after administration, the BAL B/C male mice in each experimental group and control group were administered for the second time, and the drug type and dosage were the same as the administration for the first time. The BAL B/C male mice were observed every 24 h after administration, and their survival was recorded. All animals were sacrificed on the day 15.
# [6] = listed as 5-methyltetrahydrofolic acid
# [7] = Folate capsules 400 mg/capsule, per patient, row Mean = mean
molecule,measurement,setting,value
6S-5-methyltetrahydrofolate calcium,effect on expression of iNOS in macrophages induced by LPS,iNOS; [6],did not affect; also recorded: almost no effect
same,peroxynitrite scavenging,[1]; [6],excellent peroxynitrite scavenging effects; also recorded: higher ability to scavenge peroxynitrite
same,Basic rehabilitation (symptoms other than tonsillitis and sore throat disappeared),influenza; [7],33 hours (2×) and 35 hours and 13 hours and 12 hours (2×) and 17 hours (2×) and 32 hours (3×) and 8 hours and 43 hours and 18 hours and 34 hours and 15 hours and 11 hours and 56 hours and 24 hours and 10 hours and 46 hours and 58 hours and 53 hours and 14 hours
same,Complete rehabilitation (all symptoms disappeared),influenza; [7],33 hours (2×) and 35 hours and 13 hours (3×) and 12 hours and 17 hours (2×) and 32 hours (2×) and 8 hours and 43 hours and 36 hours (2×) and 48 hours and 56 hours and 46 hours (3×) and 44 hours and 58 hours (2×) and 14 hours
same,disappearance time of symptoms: Cough,influenza; [7],33 hours (2×) and 17 hours and 29 hours and 46 hours (2×) and 44 hours and 13 hours and 58 hours
same,disappearance time of symptoms: Dizziness and fullness in head,influenza; [7],48 h and 9 h
same,disappearance time of symptoms: Dry and itchy throat,influenza; [7],15 h
same,disappearance time of symptoms: Fatigue,influenza; [7],35 hours and 8 hours (3×) and 12 hours (3×) and 15 hours and 10 hours (4×) and 33 hours
same,disappearance time of symptoms: Headache,influenza; [7],13 hours and 12 hours (4×) and 32 hours (2×) and 8 hours (3×) and 9 hours and 10 hours (2×) and 14 hours
same,disappearance time of symptoms: Inappetence,influenza; [7],13 h
same,disappearance time of symptoms: Intolerance of cold and cold limbs,influenza; [7],10 h
same,disappearance time of symptoms: Low fever,influenza; [7],10 h
same,disappearance time of symptoms: Muscular soreness,influenza; [7],16 hours and 13 hours and 32 hours and 9 hours and 15 hours and 10 hours (2×) and 14 hours
same,disappearance time of symptoms: Nasal stuffiness,influenza; [7],9 hours and 17 hours and 32 hours (2×) and 8 hours and 43 hours and 12 hours (3×) and 20 hours and 15 hours (2×) and 56 hours and 33 hours and 24 hours and 10 hours and 41 hours
same,disappearance time of symptoms: Running nose,influenza; [7],11 hours (2×) and 13 hours and 32 hours and 8 hours and 9 hours and 20 hours and 15 hours and 12 hours (3×) and 33 hours (2×) and 46 hours and 53 hours and 17 hours and 14 hours
same,disappearance time of symptoms: Sneezing,influenza; [7],32 hours (2×) and 9 hours (2×) and 18 hours and 34 hours and 15 hours and 12 hours (3×) and 8 hours and 33 hours and 10 hours and 17 hours
same,disappearance time of symptoms: Sore throat,influenza; [7],33 hours (2×) and 12 hours (2×) and 32 hours (3×) and 29 hours and 36 hours (2×) and 46 hours and 10 hours and 54 hours and 58 hours and 14 hours
same,time until the patients' influenza almost all healed,influenza; data in both Table 1 and Table 2,≤ 2 days
same,Lysate NO secretion amount,Macrophage RAW264.7 [2]; 1 μg/mL LPS induction,1.725 µM
same,Supernatant NO secretion amount,Macrophage RAW264.7 [2]; 1 μg/mL LPS induction,36.814 µM
same,effect on secretion/expression of NO in macrophages,"Macrophage RAW264.7 [2]; 15.625 μmol/L, macrophages induced by LPS, listed as 5-methyltetrahydrofolic acid",did not inhibit; also recorded: hardly affects
same,Lysate NO secretion amount,Macrophage RAW264.7 [2]; No induction,3.863 µM
same,Supernatant NO secretion amount,Macrophage RAW264.7 [2]; No induction,1.714 µM
same,effect on secretion of NO when no LPS stimulation is provided,"Macrophage RAW264.7 [2]; low concentration, no LPS",promote the secretion of NO
same,effect on expression of macrophages and inflammatory factors induced by LPS,Macrophage RAW264.7 [3],no significant effect
"NC(=O)c1ccc[n+]([C@@H]2O[C@H](COP(=O)([O-])O)[C@@H](O)[C@H]2O)c1 [NMN, nicotinamide mononucleotide]",effect on expression of iNOS in macrophages induced by LPS,iNOS,did not affect; also recorded: almost no effect
same,peroxynitrite scavenging,[1],excellent peroxynitrite scavenging effects; also recorded: higher ability to scavenge peroxynitrite
CC[C@H]1OC(=O)[C@H](C)[C@@H](O[C@H]2C[C@@](C)(OC)[C@@H](O)[C@H](C)O2)[C@H](C)[C@@H](O[C@@H]2O[C@H](C)C[C@H](N(C)C)[C@H]2O)[C@](C)(O)C[C@@H](C)CN(C)[C@H](C)[C@@H](O)[C@]1(C)O [azithromycin],histopathological examination of the lung tissue,[4],Mild interstitial pneumonia
O=C1O[C@H]([C@@H](O)CO)C(=O)C1=O [dehydroascorbic acid],effect on expression of iNOS in macrophages induced by LPS,iNOS,almost no effect
same,peroxynitrite scavenging,[1],excellent peroxynitrite scavenging effects; also recorded: higher ability to scavenge peroxynitrite
"N[C@@H](CCC(=O)N[C@@H](CS)C(=O)NCC(=O)O)C(=O)O [glutathione, reference compound]",effect on expression of iNOS in macrophages induced by LPS,iNOS,did not affect; also recorded: almost no effect
C[C@]12CCC(=O)C=C1CC[C@@H]1[C@@H]2[C@@H](O)C[C@@]2(C)[C@H]1CC[C@]2(O)C(=O)CO [hydrocortisone],mortality of patients with sepsis,[5],could not reduce
O=C1O[C@H]([C@@H](O)CO)C(O)=C1O [vitamin C],mortality of patients with sepsis,[5],cannot improve
"lipopolysaccharide [LPS, reference compound]",Lysate NO secretion amount,Macrophage RAW264.7 [2]; 1 μg/mL LPS induction,1.6 µM
same,Supernatant NO secretion amount,Macrophage RAW264.7 [2]; 1 μg/mL LPS induction,37.343 µM
same,Lysate NO secretion amount,Macrophage RAW264.7 [2]; No induction,1.95 µM
same,Supernatant NO secretion amount,Macrophage RAW264.7 [2]; No induction,42.714 µM
penicillin,outcome of mice infected with the fatal dose of Pseudomonas aeruginosa,Pseudomonas aeruginosa,all the mice in the penicillin group died
